Where a SMILES comes first, the peptide text is derived from it. The star is where a group is joined. Doxorubicin(3'-N) = COc1cccc2c1C(=O)c1c(O)c3c(c(O)c1C2=O)C[C@@](O)(C(=O)CO)C[C@@H]3O[C@H]1C[C@H](N*)[C@H](O)[C@H](C)O1; MeOCH2CH2OCH2CO = COCCOCC(=O)*
Assays:
[1] = system: Human hepatoma HepG2 cells; assay: Human liver cancer HepG2 tumors in nude mice; assay type: in vivo; details: for Tumor volume (mm^3) Day 28: 54 umol/kg IV once a week for 4 weeks; for inhibition in vivo at 54 µmol/kg: Mus musculus, HepG2, iv, 672 h, read-out: Tumor inhibition rate (%) Day 28
Method in brief: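 Female nude mice aged 6-8 weeks bearing HepG2 xenografts, randomized at 100 mm^3 tumor size. Dosing IV from Day 1 at 54 umol/kg; DOX at 18 umol/kg.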

M2 macrophages = assay: Cytotoxicity screening, inhibition rate of M2 macrophages at 10 uM; assay type: cell-based, C57BL/6 mice; details: 10 uM drug per well, 3 wells, relative to the drug-free group
Description: After the cell count in Example 13, the cell concentration was adjusted with the culture medium, and the cells were seeded in a 96-well culture plate at […] of cell suspension per well, wherein the seeding concentration of CD8+ T cells was 100000 cells/well, and the seeding concentration of M2 macrophages was 20000 cells/well. The 96-well plate was incubated overnight for 24 hour at 37° C. in a carbon dioxide (5%) incubator. After 24 hours, 100 ul of cell culture solutions containing different concentrations of drugs were added to the 96-well culture plate. At the same time, a control well (0.1% DMSO) with no drug added and only the corresponding drug solvent and a zero-adjusted well (Blank) with only medium and no cells added was set. Each set was prepared in triplicate and the plates were incubated for 48 hours at 37° C. in a 5% CO2 incubator. After 48 hours, 20 μl MTT (5 mg/ml) was added to each well and the incubation was continued for 4 hours. The culture medium was then gently aspirated, and 150 μl DMSO was added to each well as solvent for dissolution. After dissolution, the absorbance at 490 nm was measured with a microplate reader.
Cytotoxicity screening experiments for some compounds were performed for M2 macrophage inhibition as in embodiment 14.

[2] = Water solubility test (observation and HPLC); assay type: physicochemical; details: thermodynamic from solid
Description: The compounds prepared in accordance with the examples of the disclosure and the reference compounds C1, C2, C3 and C4 were lyophilized (−70° C.).

[3] = system: acidified human breast cancer (MDA-MB435) tumor tissue homogenate; assay: Activation efficiency of S-C-A linkers in tumor tissue homogenate, HPLC; assay type: biochemical; details: C is AAN, 1 mg/ml, homogenate pH 6.0, 37° C.
Description: When C is AAN, the activation of the different S-C-A linkers and the control linker is evaluated in an activation assay. They were dissolved and diluted tenfold using S-C-A conjugates to a concentration of 0.1 mM/ml. The sample compounds were added at a concentration of 1 mg/ml to 100 μg of acidified human breast cancer (MDA—MB435) tumor tissue homogenate (pH 6.0) at 37° C. The enzyme in the tumor tissue homogenate was released and detected by HPLC to compare the efficiency of activation of the linker by the tumor tissue.
The effect of the D-type tripeptide on the activation efficiency was examined in comparison to the native peptide sequence linker cleaved by Legumain, S1 in MI-S is —CH2CH2—CONH—, S2: 2 peg.

CT26 tumor cells = assay: MTT assay of N-CBP and HSA-QHL-095-N-CBP; assay type: cell-based; details: 48 hours, CT26 tumor cells and CD8+ T cells seeded
Description: After counting the separated and cultured cells, adjust the cell concentration with culture medium, inoculate the cells on a 96-well culture plate with 100 μl cell suspension per well, 100000 cells/well of CD8+ T cells and 20000 cells/well of CT26 tumor cells. The 96-well plate was incubated overnight for 24 hour at 37° C. in a carbon dioxide (5%) incubator. After 24 hours, 100 ul of cell culture medium containing different concentrations of drugs was added to the 96-well culture plate, and control wells (0.1% DMSO) without drugs but with corresponding drug solvent were set, and blank wells (Blank) with medium but without cells were set. Each set was prepared in triplicate and the plates were incubated for 48 hours at 37° C. in a 5% CO2 incubator. After 48 hours, 20 μl MTT (5 mg/ml) was added to each well and the incubation was continued for 4 hours. The culture medium was then gently aspirated, and 150 μl DMSO was added to each well as solvent for dissolution. After dissolution, the absorbance at 490 nm was measured with a microplate reader.

HT1080 tumors = assay: HT1080 tumor model in nude mice, 36 umol/kg; assay type: in vivo
Description: • 1. Animals: nude mice aged 6-8 weeks, all female. • 2. Preparation of tumor models • 1) HT1080 cells were purchased from ATCC and characterized according to the instructions provided. […] Randomization was performed when the tumor size reached 100 mm^3. Treatment was then initiated, and the day of initiation of treatment was counted as Day 1. • 3) Treatment process
According to the clinical application of the corresponding compound, the drug was administered intravenously (IV). The compounds indicated in the table were administered at a low dose and at the same dose of 36 umol/kg.

Question: For `COCCOCC(=O)N[C@@H](C)C(=O)N[C@@H](C)C(=O)N[C@@H](CC(N)=O)C(=O)N[C@@H](CC(C)C)C(=O)N[C@H]1C[C@H](O[C@H]2C[C@](O)(C(=O)CO)Cc3c(O)c4c(c(O)c32)C(=O)c2c(OC)cccc2C4=O)O[C@@H](C)[C@H]1O` [C4 PEG-AANL-DOX, reference compound] (MeOCH2CH2OCH2CO-AANL-{Doxorubicin(3'-N)}), which “Tumor volume (mm^3) Day 28” value [1] is on record?
Answer: Its value is 848.7 ± 347.5 mm^3.

Question: What about the inhibition in vivo at 54 µmol/kg [1] of the same compound?
Answer: Its inhibition in vivo at 54 µmol/kg is 70.7%.

Question: And the “Inhibition rate of M2 macrophages” value (M2 macrophages)?
Answer: Its value is 10.5%.

Question: What about the solubility [2] of the same compound?
Answer: The solubility was under 5000 µg/mL.

Question: What about the “Activation efficiency (%)” value ([3]; Table 2-3) of the same compound?
Answer: Its value is 66.9%.

Question: Which “in vitro cytotoxicity (FIGS. 13 and 14)” value (CT26 tumor cells) does the source give for `[NH3+][Pt-2]1([NH3+])[O]C(=O)C2(CNC2)C(=O)[O]1` [N-CBP] here?
Answer: The value was “stronger than carboplatin and oxaliplatin and weaker than cisplatin”.

Question: With `COc1cccc2c1C(=O)c1c(O)c3c(c(O)c1C2=O)C[C@@](O)(C(=O)CO)C[C@@H]3O[C@H]1C[C@H](NC(=O)[C@H](CC(C)C)NC(=O)[C@H](CC(N)=O)NC(=O)[C@H](C)NC(=O)[C@H](C)N)[C@H](O)[C@H](C)O1` [AANL-DOX, reference compound] (H-AANL-{Doxorubicin(3'-N)}) as the compound, how does the “Tumor volume (mm^3) Day 28” value [1] read?
Answer: Its value is 1564 ± 689.4 mm^3.

Question: What about the inhibition in vivo at 54 µmol/kg [1] of the same compound?
Answer: The inhibition in vivo at 54 µmol/kg was 46%.

Question: What about the “Tumor volume (mm^3) Day 28” value (HT1080 tumors; 36 umol/kg IV once a week for 3 weeks) of the same compound?
Answer: Its value is 318.5 ± 197.6 mm^3.

Question: What about the inhibition in vivo at 36 µmol/kg (HT1080 tumors; Mus musculus, HT-1080, iv, 672 h, read-out: Tumor inhibition rate Day 28) of the same compound?
Answer: Its inhibition in vivo at 36 µmol/kg is 81.8%.

Question: What about the “Inhibition rate of M2 macrophages” value (M2 macrophages) of the same compound?
Answer: The value was 16.9%.

Question: What about the “Activation efficiency (%)” value ([3]; Table 2-1) of the same compound?
Answer: Its value is 42.1%.

Source: patent US20230414771A1, “PREPARATION AND USE OF IMMUNOSTIMULATORY CONJUGATED COMPLEXES FOR TARGETED DELIVERY AND ACTIVATION” (YAFEI SHANGHAI BIOLOGY MEDICINE SCIENCE & TECHNOLOGY CO., …, priority 2020, published 2023)
